Key:
Format in all cases: binding
FZD6 = molecular target: T1, FZD6 (Homo sapiens, UniProt O60353); assay: NanoBRET screen HiBiT-FZD6 in HEK293; conditions: FZD6
T1 construct: purchased Promega (in-house HiBiT-GPCR construct library, NanoBRET)
T1 sequence (O60353 19-706): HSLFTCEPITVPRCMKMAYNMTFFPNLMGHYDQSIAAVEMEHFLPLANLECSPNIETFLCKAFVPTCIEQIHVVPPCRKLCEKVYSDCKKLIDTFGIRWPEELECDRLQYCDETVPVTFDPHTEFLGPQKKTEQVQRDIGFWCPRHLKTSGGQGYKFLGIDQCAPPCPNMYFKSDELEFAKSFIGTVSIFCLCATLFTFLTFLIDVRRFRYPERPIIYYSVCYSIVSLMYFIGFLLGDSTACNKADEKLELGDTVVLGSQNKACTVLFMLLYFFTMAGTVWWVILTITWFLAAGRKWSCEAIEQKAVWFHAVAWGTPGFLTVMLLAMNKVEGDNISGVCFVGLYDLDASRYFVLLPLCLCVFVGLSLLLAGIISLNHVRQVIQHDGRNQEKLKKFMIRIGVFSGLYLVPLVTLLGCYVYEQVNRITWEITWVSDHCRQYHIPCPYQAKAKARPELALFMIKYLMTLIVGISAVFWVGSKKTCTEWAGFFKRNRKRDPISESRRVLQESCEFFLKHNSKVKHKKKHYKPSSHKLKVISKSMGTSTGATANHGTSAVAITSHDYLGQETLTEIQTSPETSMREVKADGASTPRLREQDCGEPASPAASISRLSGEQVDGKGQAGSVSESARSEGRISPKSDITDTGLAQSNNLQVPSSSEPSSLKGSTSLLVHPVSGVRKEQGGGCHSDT
Protocol: (§1) Each tracer candidate was screened across the entire library of HiBiT-GPCR constructs using NanoBRET as the detection modality. As depicted in Figure 4A, the specificity of interactions was evaluated through decrease in BRET due to competitive displacement of a bound tracer by excess parental compound. Each tracer was analyzed for binding to each HiBiT-GPCR fusion in the absence and in the presence of competing parental compound. Briefly, HEK293 cells were transfected with HiBiT-GPCR constructs diluted into promoterless DNA to reduce expression and maximize translocation to the cell surface. Each tracer candidate was then screened at concentrations of 1 μM and 0.1 μM across cells expressing these fusions. Cells were treated for 1.5 h with tracer either alone or in the presence of 20 μM competing parental compound (i.e., control). BRET was measured upon addition of purified LgBiT and subsequent complementation with HiBiT genetically fused to a GPCR. The specificity of interactions was assessed through a decrease in BRET signal due to competitive displacement of the bound tracer. To further gauge the robustness of these interactions, the fold response over the control (i.e., BRETtracer/BRETcontrol) was calculated. We chose a 1.5-fold response, which translates to ≥7-fold signal over noise as the minimal threshold required to score an interaction as positive. […]. Below we highlight the screening results obtained for our exemplary fluorescent tracers based on Clozapine, Amitriptyline and AZD1283.
(§2) HiBiT-GPCR DNA constructs were diluted in 10 mM Tris pH 8 to a final concentration of 0.01 μg/μL, arrayed in 96-well plates and stored at −20 °C. For transfection, HEK293 cells were suspended in Opti-MEM (without phenol red) supplemented with 2% fetal bovine serum (Seradigm) and 100 units/mL penicillin–streptomycin (Gibco) at a final concentration of 220,000 cells/mL and dispensed into white 96-well plates at 90 μL/well. Subsequent transfections and screens were carried using an Agilent Bravo Automated Liquid Handling Platform. First, the 96-well HiBiT DNA arrays were diluted 25-fold in Opti-MEM (without serum or phenol red) to a final concentration of 0.0004 μg/μL and 20 μL of the diluted DNAs were transferred into new 96-well plates. Next, promoterless carrier DNA (1 μg/μL) was diluted 25-fold (0.04 μg/μL) and then dispensed into the diluted arrays at 20 μL/well. Following brief mixing, Viafect transfection reagent (Promega) diluted 16-fold into Opti-MEM was dispensed into the plates at 40 μL/well. After mixing by pipetting, plates were incubated for 10 min on the pipetting station deck. The DNA-transfection reagent complexes were then added to plates containing cells. To facilitate the screen, 10 μL of DNA-transfection reagent complexes were added in duplicates to the top 4 and bottom 4 rows, resulting in two identical 48-well arrays per plate. Plates with transfected cells were incubated for 18–20 h at 37 °C/5% CO2. A screen of each tracer across the entire library using two different concentrations requires duplicate plates of transfected cells. Depending on the number of tracers being screened, transfections can be scaled up using the same ratios. The next day, for each tracer, four 20× screening solutions in tracer dilution buffer (Promega) were prepared: two duplicates at final concentration of 20 μM and two duplicates at a final concentration of 2 μM. A competing unmodified compound was added to one of each duplicate at a final concentration of 400 μM. The four resulting solutions were diluted 4-fold in Opti-MEM without serum or phenol red to generate 5× solutions (5 µM and 0.5 µM tracer +/− 100 μM competing compound). To screen the library, a BioTek MultiFlo FX liquid dispenser was used to dispense 22.5 µL of tracer solution to the top 4 rows and 22.5 µL tracer + competing compound solution to the 4 bottom rows. Plates were briefly mixed on an orbital shaker and incubated for 1.5 h at room temperature. […]

SMO = molecular target: T2, SMO (Homo sapiens, UniProt Q99835); assay: NanoBRET screen HiBiT-SMO in HEK293; conditions: SMO
T2 construct: purchased Promega (in-house HiBiT-GPCR construct library, NanoBRET)
Protocol: as §1, §2

HRH4 = molecular target: T3, HRH4 (Homo sapiens, UniProt Q9H3N8); assay: NanoBRET screen HiBiT-HRH4 in HEK293; conditions: HRH4
T3 construct: purchased Promega (in-house HiBiT-GPCR construct library, NanoBRET)
Protocol: as §1, §2

NPY1R = molecular target: T4, NPY1R (Homo sapiens, UniProt P25929); assay: NanoBRET screen HiBiT-NPY1R in HEK293; conditions: NPY1R
T4 construct: purchased Promega (in-house HiBiT-GPCR construct library, NanoBRET)
T4 sequence (P25929 1-384): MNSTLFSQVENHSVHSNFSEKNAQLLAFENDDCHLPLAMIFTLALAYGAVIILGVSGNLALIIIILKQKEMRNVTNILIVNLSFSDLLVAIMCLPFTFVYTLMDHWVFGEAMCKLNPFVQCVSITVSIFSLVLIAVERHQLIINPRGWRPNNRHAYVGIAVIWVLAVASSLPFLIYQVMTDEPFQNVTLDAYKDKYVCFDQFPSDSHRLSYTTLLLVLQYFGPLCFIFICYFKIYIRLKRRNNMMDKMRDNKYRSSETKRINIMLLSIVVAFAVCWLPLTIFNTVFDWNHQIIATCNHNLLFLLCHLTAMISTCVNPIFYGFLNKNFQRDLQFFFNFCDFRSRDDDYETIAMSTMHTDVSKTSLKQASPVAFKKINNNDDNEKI
Protocol: as §1, §2

PTGER2 = molecular target: T5, PTGER2 (Homo sapiens, UniProt P43116); assay: NanoBRET screen HiBiT-PTGER2 in HEK293; conditions: PTGER2
T5 construct: purchased Promega (in-house HiBiT-GPCR construct library, NanoBRET)
Protocol: as §1, §2

T5 sequence (P43116 whole entry): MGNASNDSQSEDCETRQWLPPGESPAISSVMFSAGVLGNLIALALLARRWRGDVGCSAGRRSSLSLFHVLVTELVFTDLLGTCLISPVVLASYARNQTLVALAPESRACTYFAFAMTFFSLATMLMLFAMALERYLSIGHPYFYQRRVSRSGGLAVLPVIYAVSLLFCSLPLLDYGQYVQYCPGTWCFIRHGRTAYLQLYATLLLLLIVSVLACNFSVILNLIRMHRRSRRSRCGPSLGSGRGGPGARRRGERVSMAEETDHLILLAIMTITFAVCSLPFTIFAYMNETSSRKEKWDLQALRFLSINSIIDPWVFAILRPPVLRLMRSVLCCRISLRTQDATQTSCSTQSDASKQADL
T2 sequence (Q99835 28-787): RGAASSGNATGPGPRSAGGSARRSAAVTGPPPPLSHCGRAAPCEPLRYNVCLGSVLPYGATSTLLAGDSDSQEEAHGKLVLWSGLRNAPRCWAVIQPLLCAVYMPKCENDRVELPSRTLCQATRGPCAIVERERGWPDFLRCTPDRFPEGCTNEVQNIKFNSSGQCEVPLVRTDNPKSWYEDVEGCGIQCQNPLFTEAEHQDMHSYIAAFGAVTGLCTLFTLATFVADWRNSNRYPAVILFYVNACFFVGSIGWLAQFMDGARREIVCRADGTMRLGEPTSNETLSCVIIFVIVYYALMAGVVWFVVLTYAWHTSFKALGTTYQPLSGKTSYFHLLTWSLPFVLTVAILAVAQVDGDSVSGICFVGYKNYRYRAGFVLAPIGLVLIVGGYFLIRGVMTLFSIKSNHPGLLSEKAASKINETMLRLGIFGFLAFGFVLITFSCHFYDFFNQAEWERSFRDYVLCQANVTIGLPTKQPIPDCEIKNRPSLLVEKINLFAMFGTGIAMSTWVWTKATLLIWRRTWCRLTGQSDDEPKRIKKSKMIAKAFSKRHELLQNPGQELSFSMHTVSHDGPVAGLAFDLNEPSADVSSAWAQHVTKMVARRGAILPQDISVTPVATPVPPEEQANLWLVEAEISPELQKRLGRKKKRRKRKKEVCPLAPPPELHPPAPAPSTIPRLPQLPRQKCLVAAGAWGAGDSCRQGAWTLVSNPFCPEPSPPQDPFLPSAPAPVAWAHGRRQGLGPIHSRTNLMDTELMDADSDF
T3 sequence (Q9H3N8 whole entry): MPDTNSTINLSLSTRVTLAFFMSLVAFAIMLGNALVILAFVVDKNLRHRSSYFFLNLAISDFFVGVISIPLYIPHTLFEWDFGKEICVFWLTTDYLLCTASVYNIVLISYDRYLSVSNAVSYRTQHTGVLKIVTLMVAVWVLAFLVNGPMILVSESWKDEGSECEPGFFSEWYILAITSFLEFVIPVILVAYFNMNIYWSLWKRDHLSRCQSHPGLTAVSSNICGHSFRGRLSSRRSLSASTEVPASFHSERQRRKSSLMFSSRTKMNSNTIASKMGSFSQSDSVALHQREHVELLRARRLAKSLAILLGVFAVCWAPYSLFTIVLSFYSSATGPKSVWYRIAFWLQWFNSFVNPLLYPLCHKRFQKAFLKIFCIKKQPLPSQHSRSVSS

Row | Compound | NanoBRET Fold Response (FZD6; tracer 0.1μM) | NanoBRET Fold Response (FZD6; tracer 1μM) | NanoBRET Fold Response (SMO; tracer 0.1μM) | NanoBRET Fold Response (SMO; tracer 1μM) | NanoBRET Fold Response (HRH4; tracer 0.1μM) | NanoBRET Fold Response (HRH4; tracer 1μM) | NanoBRET Fold Response (NPY1R; tracer 0.1μM) | NanoBRET Fold Response (NPY1R; tracer 1μM) | NanoBRET Fold Response (PTGER2; tracer 0.1μM) | NanoBRET Fold Response (PTGER2; tracer 1μM) | NanoBRET Fold Response (FZD6; 0.1μM) | NanoBRET Fold Response (FZD6; 1μM) | NanoBRET Fold Response (SMO; 0.1μM) | NanoBRET Fold Response (SMO; 1μM) | NanoBRET Fold Response (HRH4; 0.1μM) | NanoBRET Fold Response (HRH4; 1μM) | NanoBRET Fold Response (NPY1R; 0.1μM) | NanoBRET Fold Response (NPY1R; 1μM) | NanoBRET Fold Response (PTGER2; 0.1μM) | NanoBRET Fold Response (PTGER2; 1μM)
1 | O=C(CCOCCOCCOCCOCCNC(=O)CCc1ccc2n1[B-](F)(F)[N+]1=C(c3ccc[nH]3)C=CC1=C2)NCCCN1CCN(C2=Nc3ccccc3Oc3ccc(Cl)cc32)CC1 [Loxapine-a-2-NB590] | 1.09 | 1.06 | 0.98 | 1.15 | 0.96 | 1.02 | 0.94 | 1.09 | 1.03 | 1.03 | – | – | – | – | – | – | – | – | – | –
2 | COc1ccccc1N1CCN(CCCCN2C(=O)c3ccc(CNC(=O)CCOCCOCCOCCOCCNC(=O)CCc4ccc5n4[B-](F)(F)[N+]4=C(c6ccc[nH]6)C=CC4=C5)cc3C2=O)CC1 [NAN-190-2-NB590] | 0.95 | 1.04 | 1.11 | 1.11 | 0.96 | – | 1.02 | 0.94 | 1.02 | 0.98 | – | – | – | – | – | – | – | – | – | –
3 | COc1ccccc1N1CCN(CCCCN2C(=O)c3ccc(CNC(=O)CCOCCNC(=O)c4ccc(CNC(=O)CCc5ccc6n5[B-](F)(F)[N+]5=C(c7ccc[nH]7)C=CC5=C6)cc4)cc3C2=O)CC1 [NAN-190-3-NB590] | 0.95 | 1.13 | 0.88 | 0.97 | 0.93 | 0.93 | 0.88 | 0.94 | 1.06 | 1.00 | – | – | – | – | – | – | – | – | – | –
4 | O=C(CCc1ccc2n1[B-](F)(F)[N+]1=C(c3ccc[nH]3)C=CC1=C2)NCc1ccc(C(=O)NCCOCCC(=O)N[C@@H]2CC[C@@]3(O)[C@H]4Cc5ccc(O)c6c5[C@@]3(CCN4CC3CC3)[C@H]2O6)cc1 [Naltrexone-3-NB590] | 0.94 | 1.10 | 0.58 | 0.55 | 0.75 | 0.91 | 0.93 | 1.02 | 1.04 | 1.00 | – | – | – | – | – | – | – | – | – | –
5 | Cc1cc2c(s1)Nc1ccccc1N=C2N1CCN(CCCNC(=O)CCOCCOCCOCCOCCNC(=O)CCc2ccc3n2[B-](F)(F)[N+]2=C(c4ccc[nH]4)C=CC2=C3)CC1 [Olanzapine-a-2-NB590] | 1.03 | 0.98 | 1.12 | 0.82 | 1.01 | 0.94 | 1.02 | 1.02 | 1.03 | 0.98 | – | – | – | – | – | – | – | – | – | –
6 | O=C(CCc1ccc2n1[B-](F)(F)[N+]1=C(c3ccc[nH]3)C=CC1=C2)NCc1ccc(C(=O)NCCOCCOCCNCC(O)COc2cccc3ccccc23)cc1 (centres unmarked) [Propranolol-3-NB590] | – | – | – | – | – | – | – | – | – | – | 1.06 | 1.01 | 1.16 | 1.07 | 0.92 | 0.97 | 1.08 | 0.99 | 1.00 | 1.02
7 | O=C(CCc1ccc2n1[B-](F)(F)[N+]1=C(c3ccc[nH]3)C=CC1=C2)NCCOCCOCCNC(=O)OCCOCCN1CCN(C2=Nc3ccccc3Sc3ccccc32)CC1 [Quetiapine-a-2-NB590] | 1.01 | 1.15 | 0.94 | 0.96 | 1.01 | 0.96 | 1.03 | 0.71 | 0.96 | 1.05 | – | – | – | – | – | – | – | – | – | –
8 | Cc1nc2n(c(=O)c1CCN1CCC(c3noc4cc(F)ccc34)CC1)CCCC2OC(=O)NCCOCCOCCOCCOCCNC(=O)CCc1ccc2n1[B-](F)(F)[N+]1=C(c3ccc[nH]3)C=CC1=C2 (centres unmarked) [Risperidone-2-NB590] | 1.01 | 1.10 | 0.86 | 1.00 | 1.03 | 1.07 | 0.88 | 0.99 | 1.01 | 1.05 | – | – | – | – | – | – | – | – | – | –
9 | CC(C)N(CC[C@H](c1ccccc1)c1cc(CCNC(=O)CCOCCOCCOCCOCCNC(=O)CCc2ccc3n2[B-](F)(F)[N+]2=C(c4ccc[nH]4)C=CC2=C3)ccc1O)C(C)C [Tolterodine-2-NB590] | 0.83 | 0.88 | 0.73 | 0.83 | 1.05 | 1.03 | 1.16 | 1.00 | 1.00 | 1.01 | – | – | – | – | – | – | – | – | – | –
